Laboratory results: patent US20080063628A1, “METHODS TO PROMOTE CELL DIFFERENTIATION” (priority 2006, published 2008)

Legend:
Panc-1 cells = assay: Trichostatin A 48 h treatment, gene expression by Real-Time PCR (Example 1); type: cell-based, human; settings: for GAPDH gene expression / HNF-3 beta gene expression / Insulin gene expression / PDX-1 gene expression / Sox17 gene expression / glucagon gene expression: 48 hours
Description: Neonatal fibroblasts, also designated Hs27, were derived from human foreskins and obtained from the American Type Culture Collection (ATCC). Panc-1 cells are a transformed cell line derived from a pancreatic epitheloid carcinoma of ductal origin, also obtained from ATCC.
Fibroblasts or Panc-1 cells were seeded into a 6-well tissue culture plate at a density of 50,000 cells/cm^2. Both cell types were cultured in medium containing 10% FBS and DMEM under standard cell culture conditions (37° C., 5% CO2). After reaching confluence (2-3 days), trichostatin A diluted in dimethyl sulfoxide (DMSO) and medium was added at either 2.5 μM or 5 μM to the cultures. Parallel cultures were treated with an equivalent concentration of DMSO as a vehicle control.
RNA samples were obtained from the treated cultures 48 hours after the addition of trichostatin A or DMSO. The culture medium was removed, the cells were washed with phosphate buffered saline (PBS), and RLT Lysis buffer containing β-mercaptoethanol (Qiagen) was added. The samples were homogenized using Qiashredder columns (Qiagen), and RNA was purified using the RNeasy Mini Kit (Qiagen). RNA quantity and quality was determined using a spectrophotometer, and cDNA was made using the iScript cDNA synthesis kit (BioRad).
The expression levels of Sox17, HNF-3 beta, Pdx-1, insulin, and glucagon were determined by Real-Time PCR (RT-PCR), as described in Example 15. Samples of 20 ng cDNA were used in each reaction. RT-PCR reactions were performed on the Applied Biosystems 7500, and data was analyzed using the accompanying software. Human pancreas cDNA was included as a positive control. Results were normalized against GAPDH expression levels.
(§1) Real-time PCR amplifcation and quantitative analysis. Unless otherwise stated, all reagents were purchased from Applied Biosystems. Real-time PCR reactions were performed using the ABI PRISM™ 7500 Sequence Detection System. TAQMAN™ FAST UNIVERSAL PCR MASTER MIX™ (ABI, CA) was used with 20 ng of reverse transcribed RNA in a total reaction volume of 20 μl. Each cDNA sample was run in duplicate to allow correction of pipetting errors. Primers and FAM-labeled TAQMAN™ probes were used at concentrations of 200 nM. The level of expression for each target gene was normalized using the pre-developed Applied Biosystem's human glyceraldehyde-3-phosphate dehydrogenase (GAPDH) endogenous control kit. Primers and probes were designed using either ABI PRISM PRIMER EXPRESS™ software or a pre-developed ABI gene analysis kit. For each gene, either one of the primers or the probe were designed to be exon-boundary spanning. This eliminated the possibility of the primers/probe binding to any genomic DNA present. The primer and probe sets are listed as follows: Pdx-1 (Hs00426216), Insulin (Hs00355773), glucagon (Hs00174967), and FoxA2 (HNF 3-beta) (Hs00232764). The remaining primers were designed using the PRIMERS program (ABI, CA). After an initial 95° C. incubation for 20 sec, samples were cycled 40 times in two stages: a denaturation step at 95° C. for 3 sec, followed by an annealing/extension step at 60° C. for 30 sec.
(§2) For each primer/probe set, a cycle time value was determined as the cycle number at which the fluorescence intensity of the PCR reaction reached a specific value in the middle of the exponential region of amplification. An increase in expression of a gene corresponded to a decrease in the number of cycles required for the fluorescence intensity to reach this value.

[1] = test system: amniotic fluid-derived cell line; assay: Single trichostatin A dose, 144 h follow-up, gene expression by RT-PCR (Example 6); type: cell-based, human; settings: 500 nM once at 0 h
Description: Several cell lines obtained from different amniotic fluid specimens (see Example 14) and pancreas donors (see Example 13) were tested with similar results. Two lines at similar passage number but derived from different amniotic fluid specimens are shown in Table VI-A and Table VI-B for this example. One of these cell lines was also used in examples 2 and 4 above. In addition, this example also contains comparison data in Table VI-C and Table VI-D for a single pancreatic-derived stromal line grown to early and late passage number.
Amniotic fluid derived cells or pancreatic-derived stromal cells were seeded into 24-well tissue culture plates at a density of 5000/cm^2 and cultured in AMNIOMAX (Invitrogen) or DMEM with 10% FBS, respectively, under standard cell culture conditions until confluent. After the cells reached confluency, amniotic fluid derived cells were treated once at time 0 hours with 500 nM trichostatin A. Pancreas-derived stromal cells were treated once at time 0 hours with 1.25 μM trichostatin A. Samples for RT-PCR were taken daily from zero to six days at the times indicated in Table VI.
RNA samples were obtained from the treated cultures up to 144 hours after the initial addition of trichostatin A or DMSO. Culture media was removed, the cells were washed with PBS, and RLT lysis buffer containing β-mercaptoethanol (Qiagen) was added. During culture, the medium was not changed nor was freshly prepared trichostatin A added. RNA was purified using the RNeasy Mini Kit (Qiagen), and RNA quantity and quality was determined using a spectrophotometer. cDNA was made using the iScript cDNA synthesis kit (BioRad).
Samples of 20 ng cDNA were used in each reaction to determine the expression levels of the following genes in amniotic fluid-derived cells: Gata1, HNF-3 beta, Pdx-1, insulin, and Sox17. Similarly, samples of 20 ng cDNA were used in each reaction to determine the expression level of the following genes in pancreatic-derived stromal cells: glucagon, HNF-3 beta, insulin and Pdx-1. Real-Time PCR was performed on the Applied Biosystems 7500, and data was analyzed using the accompanying software according to the methods described in Example 15.
as §1, §2

[2] = Panc-1 cells treated for 48 hours

CC(/C=C/C(=O)NO)=C\[C@@H](C)C(=O)c1ccc(N(C)C)cc1 [trichostatin A]
GAPDH gene expression (Panc-1 cells; 2.5 μM): +++ (detectable at less than 35 cycles by RT-PCR with SE less than 0.9)
HNF-3 beta gene expression (Panc-1 cells; 2.5 μM): +++ (detectable at less than 35 cycles by RT-PCR with SE less than 0.9)
Insulin gene expression (Panc-1 cells; 2.5 μM): + (detectable at greater than 35–40 cycles by RT-PCR)
PDX-1 gene expression (Panc-1 cells; 2.5 μM): +++ (detectable at less than 35 cycles by RT-PCR with SE less than 0.9)
Sox17 gene expression (Panc-1 cells; 2.5 μM): +++ (detectable at less than 35 cycles by RT-PCR with SE less than 0.9)
glucagon gene expression (Panc-1 cells; 2.5 μM): +++ (detectable at less than 35 cycles by RT-PCR with SE less than 0.9)
GAPDH gene expression (Panc-1 cells; 5.0 μM): +++ (detectable at less than 35 cycles by RT-PCR with SE less than 0.9)
HNF-3 beta gene expression (Panc-1 cells; 5.0 μM): +++ (detectable at less than 35 cycles by RT-PCR with SE less than 0.9)
Insulin gene expression (Panc-1 cells; 5.0 μM): + (detectable at greater than 35–40 cycles by RT-PCR)
PDX-1 gene expression (Panc-1 cells; 5.0 μM): +++ (detectable at less than 35 cycles by RT-PCR with SE less than 0.9)
Sox17 gene expression (Panc-1 cells; 5.0 μM): +++ (detectable at less than 35 cycles by RT-PCR with SE less than 0.9)
glucagon gene expression (Panc-1 cells; 5.0 μM): +++ (detectable at less than 35 cycles by RT-PCR with SE less than 0.9)
Pdx-1 expression with 5.0 μm versus 2.5 μM trichostatin A (Panc-1 cells; [2]): 11 times higher
Sox-17 expression with 5.0 μm versus 2.5 μM trichostatin A (Panc-1 cells; [2]): 60 times higher
glucagon expression with 5.0 μm versus 2.5 μM trichostatin A (Panc-1 cells; [2]): 5 times higher
Gata1 gene expression ([1]; 24 hrs): nd (not detectable at >40 cycles by RT-PCR)
HNF (HNF-3 beta) gene expression ([1]; 24 hrs): +++ (detectable at less than 35 cycles by RT-PCR with SE less than 0.9)
Insulin gene expression ([1]; 24 hrs): nd (not detectable at >40 cycles by RT-PCR)
Pdx-1 gene expression ([1]; 24 hrs): + (detectable between 35 cycles and 40 cycles by RT-PCR)
sox17 gene expression ([1]; 24 hrs): +++ (detectable at less than 35 cycles by RT-PCR with SE less than 0.9)
Gata1 gene expression ([1]; 48 hrs): nd (not detectable at >40 cycles by RT-PCR)
HNF (HNF-3 beta) gene expression ([1]; 48 hrs): +++ (detectable at less than 35 cycles by RT-PCR with SE less than 0.9)
Insulin gene expression ([1]; 48 hrs): nd (not detectable at >40 cycles by RT-PCR)
Pdx-1 gene expression ([1]; 48 hrs): nd (not detectable at >40 cycles by RT-PCR)
sox17 gene expression ([1]; 48 hrs): +++ (detectable at less than 35 cycles by RT-PCR with SE less than 0.9)
Gata1 gene expression ([1]; 72 hrs): nd (not detectable at >40 cycles by RT-PCR)
HNF (HNF-3 beta) gene expression ([1]; 72 hrs): + (detectable between 35 cycles and 40 cycles by RT-PCR)
Insulin gene expression ([1]; 72 hrs): + (detectable between 35 cycles and 40 cycles by RT-PCR)
Pdx-1 gene expression ([1]; 72 hrs): nd (not detectable at >40 cycles by RT-PCR)
sox17 gene expression ([1]; 72 hrs): +++ (detectable at less than 35 cycles by RT-PCR with SE less than 0.9)
Gata1 gene expression ([1]; 96 hrs): nd (not detectable at >40 cycles by RT-PCR)
HNF (HNF-3 beta) gene expression ([1]; 96 hrs): nd (not detectable at >40 cycles by RT-PCR)
Insulin gene expression ([1]; 96 hrs): + (detectable between 35 cycles and 40 cycles by RT-PCR)
Pdx-1 gene expression ([1]; 96 hrs): nd (not detectable at >40 cycles by RT-PCR)
sox17 gene expression ([1]; 96 hrs): +++ (detectable at less than 35 cycles by RT-PCR with SE less than 0.9)
Gata1 gene expression ([1]; 120 hrs): nd (not detectable at >40 cycles by RT-PCR)
HNF (HNF-3 beta) gene expression ([1]; 120 hrs): + (detectable between 35 cycles and 40 cycles by RT-PCR)
Insulin gene expression ([1]; 120 hrs): + (detectable between 35 cycles and 40 cycles by RT-PCR)
Pdx-1 gene expression ([1]; 120 hrs): nd (not detectable at >40 cycles by RT-PCR)
sox17 gene expression ([1]; 120 hrs): +++ (detectable at less than 35 cycles by RT-PCR with SE less than 0.9)
Gata1 gene expression ([1]; 144 hrs): nd (not detectable at >40 cycles by RT-PCR)
HNF (HNF-3 beta) gene expression ([1]; 144 hrs): nd (not detectable at >40 cycles by RT-PCR)
Insulin gene expression ([1]; 144 hrs): + (detectable between 35 cycles and 40 cycles by RT-PCR)
Pdx-1 gene expression ([1]; 144 hrs): nd (not detectable at >40 cycles by RT-PCR)
sox17 gene expression ([1]; 144 hrs): +++ (detectable at less than 35 cycles by RT-PCR with SE less than 0.9)
